The values that follow are results of earlier work, collected in patent US20160083345A1, “POLYMORPHIC FORMS OF LOMITAPIDE AND ITS SALTS AND PROCESSES FOR THEIR PREPARATION” (CADILA HEALTHCARE LIMITED, priority 2014, published 2016).

Molecules are shown by their SMILES. Where a name gives a salt, the structure may show the parent alone. Read-outs that look alike come from different tables or passages of the source.

As to `O=C(NC1CCN(CCCCC2(C(=O)NCC(F)(F)F)c3ccccc3-c3ccccc32)CC1)c1ccccc1-c1ccc(C(F)(F)F)cc1` [Lomitapide mesylate, N-(2,2,2-trifluoroethyl)-9-[4-[4-[[[4′(trifluoromethyl)[1,1′-biphenyl]-2-yl]carbonyl]amino]-1-piperidinyl]butyl]-9H-fluorene-9carboxamide methanesulfonate], the solubility result is on record as “sparingly soluble” (1-octanol); “soluble” (2-butanol); “sparingly soluble” (2-propanol); “freely soluble” (acetone); “soluble” (acetonitrile); “slightly soluble” (aqueous solutions of pH 2 to 5). Moreover, the solubility entry is, setting by setting: (ethanol) “freely soluble”; (ethyl acetate) “slightly soluble”; (heptane) “insoluble”; (methanol) “freely soluble”; (methylene chloride) “soluble”.
